ChEMBL document CHEMBL1138824, “Design and synthesis of hydroxyethylene-based peptidomimetic inhibitors of human beta-secretase” (J Med Chem, 2004)
Residues, ends and D or L forms follow the SMILES beside them.

Key:
[1] = molecular target: Beta-secretase (BACE) (Homo sapiens, UniProt Q9Y5Z0+P56817); test: Inhibition of human beta secretase in MBP-C125 assay.; type: protein assay
[2] = test system: HEK293; test: Effective concentration evaluated in HEK293 cells; type: functional, cell-based; conditions: Homo sapiens

Compound	IC50 [1] [nM]	EC50 [2] [nM]
CCCN(CCC)C(=O)c1cccc(C(=O)N[C@@H](Cc2cc(F)cc(F)c2)[C@@H](O)C[C@@H](CC)C(=O)NCCCCC(=O)O)c1	400	–
CC(C)C[C@H](NC(=O)C(O)c1cccc2ccccc12)[C@@H](O)C[C@H](C(=O)N[C@@H](C)C(=O)N[C@@H](CCC(=O)O)C(=O)N[C@@H](Cc1ccccc1)C(=O)O)C(C)C (some centres undefined)	7500	–
CCCN(CCC)C(=O)c1cccc(C(=O)N[C@@H](Cc2cc(F)cc(F)c2)[C@@H](O)C[C@@H](CC)C(=O)NCCCC(=O)O)c1	310	–
CSCC[C@H](NC(=O)[C@@H](NC(=O)OC(C)(C)C)C(C)C)C(=O)N[C@@H](CC(C)C)[C@@H](O)C[C@@H](C)C(=O)N[C@H](C(=O)NCc1ccccc1)C(C)C	3	–
CCCN(CCC)C(=O)c1cccc(C(=O)N[C@@H](Cc2cc(F)cc(F)c2)[C@@H](O)C[C@@H](CC)C(=O)N[C@H]2C[C@@H](OC)C[C@@H](OC)C2)c1	6600	–
CCCN(CCC)C(=O)c1cccc(C(=O)N[C@@H](Cc2cc(F)cc(F)c2)[C@@H](O)C[C@@H](CC(C)C)C(=O)NC[C@H]2CC[C@H](C(=O)O)CC2)c1	310	–
CCCN(CCC)C(=O)c1cccc(C(=O)N[C@@H](Cc2cc(F)cc(F)c2)[C@@H](O)C[C@@H](CC)C(=O)NCCCCCC(=O)O)c1	240	–
CCCN(CCC)C(=O)c1cccc(C(=O)N[C@@H](Cc2cc(F)cc(F)c2)[C@@H](O)C[C@@H](CC)C(=O)NCCC(=O)O)c1	2800	–
CCCN(CCC)C(=O)c1cccc(C(=O)N[C@@H](Cc2cc(F)cc(F)c2)[C@@H](O)C[C@@H](Cc2ccccc2)C(=O)NC[C@H]2CC[C@H](C(=O)O)CC2)c1	27000	–
CC(C)[C@H](NC(=O)C[C@H](O)[C@H](Cc1cc(F)cc(F)c1)NC(=O)C(O)c1ccccc1-c1ccccc1)C(=O)N[C@H]1C[C@@H](C(=O)O)C[C@@H](C(=O)O)C1 (some centres undefined)	20	> 10000
CCCN(CCC)C(=O)c1cccc(C(=O)N[C@@H](Cc2cc(F)cc(F)c2)[C@@H](O)CCC(=O)NC[C@H]2CC[C@H](C(=O)O)CC2)c1	400	–
CCCN(CCC)C(=O)c1cccc(C(=O)N[C@@H](Cc2cc(F)cc(F)c2)[C@@H](O)C[C@@H](CC)C(=O)NCCCCCCCC(=O)OC)c1	410	–
CCCN(CCC)C(=O)c1cccc(C(=O)N[C@@H](Cc2cc(F)cc(F)c2)[C@@H](O)C[C@@H](CC)C(=O)NC[C@H]2CC[C@H](C(=O)O)CC2)c1	50	–
CCCN(CCC)C(=O)c1cccc(C(=O)N[C@@H](Cc2cc(F)cc(F)c2)[C@@H](O)C[C@@H](C)C(=O)NCC(C)C)c1	30	3000
CCCN(CCC)C(=O)c1cccc(C(=O)N[C@@H](Cc2cc(F)cc(F)c2)[C@@H](O)C[C@@H](CC)C(=O)NCc2ccccc2)c1	1400	–
CCCN(CCC)C(=O)c1cccc(C(=O)N[C@@H](Cc2cc(F)cc(F)c2)[C@@H](O)CC(=O)N[C@H](C(=O)N[C@H]2C[C@@H](C(=O)O)C[C@@H](C(=O)O)C2)C(C)C)c1	1	1000
CCC[C@H](C[C@H](O)[C@H](Cc1cc(F)cc(F)c1)NC(=O)c1cccc(C(=O)N(CCC)CCC)c1)C(=O)NC[C@H]1CC[C@H](C(=O)O)CC1	45	–
CCCN(CCC)C(=O)c1cccc(C(=O)N[C@@H](Cc2cc(F)cc(F)c2)[C@@H](O)C[C@@H](C)C(=O)NC[C@H]2CC[C@H](C(=O)O)CC2)c1	26	–
CCCN(CCC)C(=O)c1cccc(C(=O)N[C@@H](Cc2cc(F)cc(F)c2)[C@@H](O)C[C@@H](CC)C(=O)NCCCCCCCC(=O)O)c1	200	–
CC(C)C[C@H](NC(=O)C(O)c1cccc2ccccc12)[C@@H](O)CC(=O)N[C@H](C(=O)N[C@@H](C)C(=O)N[C@@H](CCC(=O)O)C(=O)N[C@@H](Cc1ccccc1)C(=O)O)C(C)C (some centres undefined) (HELM PEPTIDE1{[O=C(C(O)c1cccc2ccccc12)[*:2]].[CC(C)C[C@H](N[*:1])[C@@H](O)CC(=O)[*:2]].V.A.E.F}$$$$V2.0)	4000	–
CSCC[C@H](NC(=O)[C@@H](NC(C)=O)C(C)C)C(=O)N[C@@H](CC(C)C)[C@@H](O)C[C@H](C(=O)N[C@@H](C)C(=O)N[C@@H](CCC(=O)O)C(=O)N[C@@H](Cc1ccccc1)C(=O)O)C(C)C (HELM PEPTIDE1{[ac].V.M.[CC(C)C[C@H](N[*:1])[C@@H](O)C[C@H](C(=O)[*:2])C(C)C].A.E.F}$$$$V2.0)	30	–
